Where a name gives a salt, the structure may show the parent alone.
Columns and labels:
[1] = test system: Acinetobacter calcoaceticus 034; assay: Ex.1 colony coloration, 5-bromo-3-indolyl nonanoate, DMSO/Tween 20, MacConkey; format: cell-based; as to intensity of coloration: key: 0: no activity; 0.1: trace of coloration; 0.5: very pale coloration; 1: distinct coloration of low intensity; 2: clear coloration of medium intensity; 3: intense coloration; 4: very intense coloration
Protocol: (§1) The esterase substrate tested is 5-bromo-3-indolyl nonanoate. A 40 g/l stock solution of substrate is prepared in a mixture of 40% dimethyl sulfoxide and 60% Tween 20. A sufficient volume is added to a supercooled MacConkey medium (without neutral red) to give a substrate concentration of 500 mg/l.
(§2) Microorganisms originating from the Applicant's collection were inoculated onto this medium from a 0.5 McFarland suspension by isolation in three quadrants. The dishes were incubated at 37° C. for 48 hours. The colonies formed were examined visually after 24 and 48 hours of incubation. The coloration of these colonies and the intensity of this coloration were noted.
(§3) The intensity of coloration corresponds to an arbitrary scale defined as follows:

[2] = test system: Salmonella typhimurium 010; assay: as above; format: cell-based
Protocol: as §1, §2, §3

Compound: CCCCC(CC)CCC(CC(C)C)OS(=O)(=O)O (centres unmarked) [Tergitol 4, 7-ethyl-2-methyl-4-undecanoate hydrogensulfate or its sodium salt]
- color ([1]; 2 ml/l, 24 h): gray
- intensity of coloration ([1]; 2 ml/l, 24 h): 2
- color ([1]; 2 ml/l, 48 h): gray
- intensity of coloration ([1]; 2 ml/l, 48 h): 3
- color ([1]; 4 ml/l, 24 h): gray
- intensity of coloration ([1]; 4 ml/l, 24 h): 3
- color ([1]; 4 ml/l, 48 h): gray
- intensity of coloration ([1]; 4 ml/l, 48 h): 3
- color ([1]; 8 ml/l, 24 h): gray
- intensity of coloration ([1]; 8 ml/l, 24 h): 3
- color ([1]; 8 ml/l, 48 h): gray
- intensity of coloration ([1]; 8 ml/l, 48 h): 4
- color ([1]; 16 ml/l, 24 h): gray
- intensity of coloration ([1]; 16 ml/l, 24 h): 0.5
- color ([1]; 16 ml/l, 48 h): gray
- intensity of coloration ([1]; 16 ml/l, 48 h): 0.5
- color ([2]; 2 ml/l, 24 h): gray
- intensity of coloration ([2]; 2 ml/l, 24 h): 2
- color ([2]; 2 ml/l, 48 h): gray
- intensity of coloration ([2]; 2 ml/l, 48 h): 2.5
- color ([2]; 4 ml/l, 24 h): gray
- intensity of coloration ([2]; 4 ml/l, 24 h): 3
- color ([2]; 4 ml/l, 48 h): gray
- intensity of coloration ([2]; 4 ml/l, 48 h): 3
- color ([2]; 8 ml/l, 24 h): gray
- intensity of coloration ([2]; 8 ml/l, 24 h): 3.5
- color ([2]; 8 ml/l, 48 h): gray
- intensity of coloration ([2]; 8 ml/l, 48 h): 3.5
- color ([2]; 16 ml/l, 24 h): gray
- intensity of coloration ([2]; 16 ml/l, 24 h): 3.5
- color ([2]; 16 ml/l, 48 h): gray
- intensity of coloration ([2]; 16 ml/l, 48 h): 4

— patent US7235379B2, “Method and medium for the detection/identification of microorgranisms with esterase activity” (Bio Merieux, priority 2000, dated 2007)
